Laboratory results reported in US5763460A, “N-(piperidinyl-1-alkyl)-substituted cyclohexane carboxylic acid amides as 5-htia receptor antagonists” (John Wyeth & Brother Limited, priority 1993, dated 1998).

Legend:
5-HT1A receptor [1] = molecular target: T1, 5-HT1A receptor (Rattus norvegicus, UniProt P19327); assay: 5-HT1A receptor binding activity in rat hippocampal membrane homogenate; conditions: method of Alexander and Wood
T1 construct: rat hippocampal membrane homogenate; from tissue; host or cells: rat hippocampal membrane homogenate
T1 sequence (P19327 1-422): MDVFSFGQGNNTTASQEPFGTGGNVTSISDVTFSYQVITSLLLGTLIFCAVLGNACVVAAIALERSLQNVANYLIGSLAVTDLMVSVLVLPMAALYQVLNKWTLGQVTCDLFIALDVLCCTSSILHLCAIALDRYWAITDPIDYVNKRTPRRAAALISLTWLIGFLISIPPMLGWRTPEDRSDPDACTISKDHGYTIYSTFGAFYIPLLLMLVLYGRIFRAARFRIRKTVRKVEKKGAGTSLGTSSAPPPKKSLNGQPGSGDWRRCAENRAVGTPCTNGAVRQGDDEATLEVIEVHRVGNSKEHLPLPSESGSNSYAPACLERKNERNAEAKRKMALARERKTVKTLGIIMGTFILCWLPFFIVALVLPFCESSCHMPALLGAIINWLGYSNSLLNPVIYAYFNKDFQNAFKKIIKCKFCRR
Protocol: The compounds of the invention are tested for 5-HT1A receptor binding activity in rat hippocampal membrane homogenate by the method of B. S. Alexander and M. D. Wood, J Pharm Pharmacol. 1988, 40, 888-891.

α1 site = assay: affinity for the α1 site; type: binding; conditions: procedure of A. L. Marrow et al
5-HT1A receptor [2] = molecular target: T2, 5-HT1A receptor (Cavia porcellus, UniProt A0A286Y074); assay: 5-HT1A receptor antagonism: antagonism of 5-carboxamidotryptamine in the guinea-pig ileum in vitro
T2 construct: guinea-pig ileum in vitro; from tissue; host or cells: guinea-pig ileum
T2 sequence (A0A286Y074 1-421): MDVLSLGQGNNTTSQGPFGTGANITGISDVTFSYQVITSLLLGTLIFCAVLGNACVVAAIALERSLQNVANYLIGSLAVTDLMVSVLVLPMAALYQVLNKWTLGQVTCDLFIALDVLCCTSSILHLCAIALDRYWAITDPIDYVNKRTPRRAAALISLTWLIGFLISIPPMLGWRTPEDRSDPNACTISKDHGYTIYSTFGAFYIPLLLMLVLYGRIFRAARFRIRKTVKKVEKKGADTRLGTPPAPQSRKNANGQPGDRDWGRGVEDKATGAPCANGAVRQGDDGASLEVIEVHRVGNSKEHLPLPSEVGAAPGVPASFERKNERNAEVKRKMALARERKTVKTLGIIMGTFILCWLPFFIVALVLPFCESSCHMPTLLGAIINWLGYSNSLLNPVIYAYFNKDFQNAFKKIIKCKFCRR
Protocol: The compounds are tested for 5-HT1A receptor antagonism activity in a test involving the antagonism of 5-carboxamidotryptamine in the guinea-pig ileum in vitro (based upon the procedure of Fozard et al, Br J Pharmac, 1985, 86, 601 P).

IC50 (5-HT1A receptor [1]): 3.5 nM
IC50 (α1 site): 858 nM
pA2 (5-HT1A receptor [2]): 7.9
Structure (SMILES): COc1ccccc1C1CCN([C@H](C)CN(C(=O)C2CCCCC2)c2ccccn2)CC1 [Example 1, (R)-N-(2-(1-(4-(2-Methoxyphenyl)piperidinyl))propyl)-N-(2-pyridyl)cyclohexanecarboxamide]
